This note sets out measurements from patent US20260241012A1, “1,8-NAPHTHYRIDIN-2-ONE HETEROBIFUNCTIONAL BCL6 DEGRADERS” (Treeline Biosciences, Inc., priority 2022, published 2026).

Molecules are shown by their SMILES. Where only a bound is given, the exact number is not on record here.

The target in the assay is T1, N-terminal HiBiT tagged BCL6 (Homo sapiens, UniProt P41182).
T1 construct: expressed in transfected cells; host or cells: HT1080 (ATCC CCL-121), stably transduced with lentivirus pLV-UBC-N-HiBiT-BCL6-PGK-puro
Kind of assay: HiBiT based degradation assay. Conditions: HT1080 cells expressing N-terminal HiBiT tagged BCL6, 5 hours of incubation; for Ymin (5 hr): BCL6 degradation normalized with DMSO control; for DC50: four-parameter logistic model, read-out: EC50 (5 hr). The format is cell-based. In a few lines: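 Degradation measured by luminescence from the Nano-Glo HiBiT lytic reagent (15 min, room temperature), normalized to DMSO controls and fitted to a four-parameter curve.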

For `CNC(=O)COc1cc2cc(Nc3nc(N4CCC(CN5CCN(c6cccc7c(C8CCC(=O)NC8=O)nn(C)c67)C[C@@H]5C)CC4)ncc3F)cnc2n(C(C)C)c1=O` (stereo partly drawn) [Compound 188b, 2-[[6-[[2-[4-[[(2S)-4-[3-(2,6-dioxo-3-piperidyl)-1-methyl-indazol-7-yl]-2-methyl-piperazin-1-yl]methyl]-1-piperidyl]-5-fluoro-pyrimidin-4-yl]amino]-1-isopropyl-2-oxo-1,8-naphthyridin-3-yl]oxy]-N-methyl-acetamide], the “Ymin (5 hr)” value is “++++ (Ymin < 30%)” and the DC50 lay in the range of 10 to 100 nM.

Regarding `CNC(=O)COc1cc2cc(Nc3nc(N4CCC(F)(CN5CCN(c6cccc7c(C8CCC(=O)NC8=O)nn(C)c67)C[C@@H]5C)CC4)ncc3Cl)cnc2n(C(C)C)c1=O` (stereo partly drawn) [Compound 189a, 2-[[6-[[5-chloro-2-[4-[[(2S)-4-[3-(2,6-dioxo-3-piperidyl)-1-methyl-indazol-7-yl]-2-methyl-piperazin-1-yl]methyl]-4-fluoro-1-piperidyl]pyrimidin-4-yl]amino]-1-isopropyl-2-oxo-1,8-naphthyridin-3-yl]oxy]-N-methyl-acetamide], the “Ymin (5 hr)” value is “++++ (Ymin < 30%)” and the DC50 fell in the range of 10 to 100 nM.

Regarding `CNC(=O)COc1cc2cc(Nc3cc(N4CCC(CN5CCN(c6ccc7c(C8CCC(=O)NC8=O)nn(C)c7c6)CC5)CC4)ncc3Cl)cnc2n(C(C)C)c1=O` (stereo not drawn) [Compound 190, 2-[[6-[[5-chloro-2-[4-[[4-[3-(2,6-dioxo-3-piperidyl)-1-methyl-indazol-6-yl]piperazin-1-yl]methyl]-1-piperidyl]-4-pyridyl]amino]-1-isopropyl-2-oxo-1,8-naphthyridin-3-yl]oxy]-N-methyl-acetamide], the “Ymin (5 hr)” value is “++ (50% ≤ Ymin < 70%)” and the DC50 is 10 to 100 nM.

As for `CNC(=O)COc1cc2cc(Nc3nc(N4CCN(CC5CCN(c6cccc7c(C8CCC(=O)NC8=O)nn(C)c67)CC5)C5(CC5)C4)ncc3Cl)cnc2n(C(C)C)c1=O` (stereo not drawn) [Compound 191, 2-[[6-[[5-chloro-2-[4-[[1-[3-(2,6-dioxo-3-piperidyl)-1-methyl-indazol-7-yl]-4-piperidyl]methyl]-4,7-diazaspiro[2.5]octan-7-yl]pyrimidin-4-yl]amino]-1-isopropyl-2-oxo-1,8-naphthyridin-3-yl]oxy]-N-methyl-acetamide], the “Ymin (5 hr)” value was “+++ (30% ≤ Ymin < 50%)” and the DC50 is 10 to 100 nM.

Consider `CNC(=O)COc1cc2cc(Nc3nc(N4CCC(CN5CCN(c6cccc7c(C8CCC(=O)NC8=O)nn(C)c67)C[C@@H]5C)CC4)ncc3Cl)cnc2n(C(C)C)c1=O` (stereo partly drawn) [Compound 192a, 2-[[6-[[5-chloro-2-[4-[[(2S)-4-[3-(2,6-dioxo-3-piperidyl)-1-methyl-indazol-7-yl]-2-methyl-piperazin-1-yl]methyl]-1-piperidyl]pyrimidin-4-yl]amino]-1-isopropyl-2-oxo-1,8-naphthyridin-3-yl]oxy]-N-methyl-acetamide], for which the “Ymin (5 hr)” value is given as “++++ (Ymin < 30%)” and the DC50 was 10 to 100 nM.

As for `CNC(=O)COc1cc2cc(Nc3nc(N4CCC(CN5CCN(c6cccc7c(C8CCC(=O)NC8=O)nn(C)c67)C[C@H]5C)CC4)ncc3Cl)cnc2n(C(C)C)c1=O` (stereo partly drawn) [Compound 192b, 2-[[6-[[5-chloro-2-[4-[[(2R)-4-[3-(2,6-dioxo-3-piperidyl)-1-methyl-indazol-7-yl]-2-methyl-piperazin-1-yl]methyl]-1-piperidyl]pyrimidin-4-yl]amino]-1-isopropyl-2-oxo-1,8-naphthyridin-3-yl]oxy]-N-methyl-acetamide], the “Ymin (5 hr)” value was “++++ (Ymin < 30%)” and the DC50 lay within 10 to 100 nM.

Take `CNC(=O)COc1cc2cc(Nc3nc(N4CCC(CN5CCN(c6ccc7c(C8CCC(=O)NC8=O)nn(C)c7c6)CC5(C)C)CC4)ncc3Cl)cnc2n(C(C)C)c1=O` (stereo not drawn) [Compound 196, 2-((6-((5-chloro-2-(4-((4-(3-(2,6-dioxopiperidin-3-yl)-1-methyl-1H-indazol-6-yl)-2,2-dimethylpiperazin-1-yl)methyl)piperidin-1-yl)pyrimidin-4-yl)amino)-1-isopropyl-2-oxo-1,2-dihydro-1,8-naphthyridin-3-yl)oxy)-N-methylacetamide]: the “Ymin (5 hr)” value is “+++ (30% ≤ Ymin < 50%)” and the DC50 is less than 10 nM.

For the compound `CNC(=O)COc1cc2cc(Nc3nc(N4CCC(CN5[C@H](C)CN(c6cccc7c(C8CCC(=O)NC8=O)nn(C)c67)C[C@@H]5C)CC4)ncc3Cl)cnc2n(C(C)C)c1=O` (stereo partly drawn) [Compound 197a, 2-[[6-[[5-chloro-2-[4-[[(2R,6S)-4-[3-(2,6-dioxo-3-piperidyl)-1-methyl-indazol-7-yl]-2,6-dimethyl-piperazin-1-yl]methyl]-1-piperidyl]pyrimidin-4-yl]amino]-1-isopropyl-2-oxo-1,8-naphthyridin-3-yl]oxy]-N-methyl-acetamide], the “Ymin (5 hr)” value is listed as “+++ (30% ≤ Ymin < 50%)” and the DC50 was 10 to 100 nM.

For `CNC(=O)COc1cc2cc(Nc3nc(N4CCC(CN5[C@@H](C)CN(c6cccc7c(C8CCC(=O)NC8=O)nn(C)c67)C[C@@H]5C)CC4)ncc3Cl)cnc2n(C(C)C)c1=O` (stereo partly drawn) [Compound 197b, 2-[[6-[[5-chloro-2-[4-[[(2S,6S)-4-[3-(2,6-dioxo-3-piperidyl)-1-methyl-indazol-7-yl]-2,6-dimethyl-piperazin-1-yl]methyl]-1-piperidyl]pyrimidin-4-yl]amino]-1-isopropyl-2-oxo-1,8-naphthyridin-3-yl]oxy]-N-methyl-acetamide], the “Ymin (5 hr)” value is “++++ (Ymin < 30%)” and the DC50 fell in the range of 10 to 100 nM.

Take `CNC(=O)COc1cc2cc(Nc3nc(N4CC5(CCC(Nc6ccc(F)c7c(C8CCC(=O)NC8=O)nn(C)c67)CC5)C4)ncc3Cl)cnc2n(C(C)C)c1=O` (stereo not drawn) [Compound 198, 2-[[6-[[5-chloro-2-[7-[[3-(2,6-dioxo-3-piperidyl)-4-fluoro-1-methyl-indazol-7-yl]amino]-2-azaspiro[3.5]nonan-2-yl]pyrimidin-4-yl]amino]-1-isopropyl-2-oxo-1,8-naphthyridin-3-yl]oxy]-N-methyl-acetamide]: the “Ymin (5 hr)” value is “++ (50% ≤ Ymin < 70%)” and the DC50 is 10 to 100 nM.

Turning to `CNC(=O)COc1cc2cc(Nc3nc(N4CCC5(CCC(Nc6ccc7c(C8CCC(=O)NC8=O)nn(C)c7c6)CC5)CC4)ncc3Cl)cnc2n(C(C)C)c1=O` (stereo not drawn) [Compound 199, 2-[[6-[[5-chloro-2-[9-[[3-(2,6-dioxo-3-piperidyl)-1-methyl-indazol-6-yl]amino]-3-azaspiro[5.5]undecan-3-yl]pyrimidin-4-yl]amino]-1-isopropyl-2-oxo-1,8-naphthyridin-3-yl]oxy]-N-methyl-acetamide], the “Ymin (5 hr)” value is reported as “++++ (Ymin < 30%)” and the DC50 is less than 10 nM.

Take `CNC(=O)COc1cc2cc(Nc3nc(N4CCC(CN5CCN(c6cccc7c(C8CCC(=O)NC8=O)nn(C)c67)CC5(C)C)CC4)ncc3Cl)cnc2n(C(C)C)c1=O` (stereo not drawn) [Compound 200, 2-[[6-[[5-chloro-2-[4-[[4-[3-(2,6-dioxo-3-piperidyl)-1-methyl-indazol-7-yl]-2,2-dimethyl-piperazin-1-yl]methyl]-1-piperidyl]pyrimidin-4-yl]amino]-1-isopropyl-2-oxo-1,8-naphthyridin-3-yl]oxy]-N-methyl-acetamide]: the “Ymin (5 hr)” value is recorded as “+++ (30% ≤ Ymin < 50%)” and the DC50 fell in the range of 10 to 100 nM.
